Where two headings read alike, the source gives them in different places.
Experiments:
[1] = target: T1, human histone deacetylases (HDAC) 8 (Homo sapiens, UniProt Q9BY41); experiment: HDAC enzymatic assay, HDAC8; type: biochemical
T1 sequence (Q9BY41 1-377): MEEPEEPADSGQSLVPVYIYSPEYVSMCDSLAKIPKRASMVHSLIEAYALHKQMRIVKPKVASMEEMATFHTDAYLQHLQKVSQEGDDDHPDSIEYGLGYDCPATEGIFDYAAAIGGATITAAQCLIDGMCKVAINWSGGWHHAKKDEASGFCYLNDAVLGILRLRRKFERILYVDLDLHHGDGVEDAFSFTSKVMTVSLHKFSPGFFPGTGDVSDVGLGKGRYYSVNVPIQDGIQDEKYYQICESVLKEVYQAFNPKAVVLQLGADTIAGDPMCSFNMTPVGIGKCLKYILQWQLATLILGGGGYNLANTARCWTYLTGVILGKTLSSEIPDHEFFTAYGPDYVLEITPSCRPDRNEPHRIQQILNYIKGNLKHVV

[2] = target: T2, human histone deacetylases (HDAC) 6 (Homo sapiens, UniProt Q9UBN7); experiment: HDAC enzymatic assay, HDAC6; type: biochemical; settings: for selective inhibitions on HDAC6: HDAC6 versus other HDACs
T2 sequence (Q9UBN7 1-1215): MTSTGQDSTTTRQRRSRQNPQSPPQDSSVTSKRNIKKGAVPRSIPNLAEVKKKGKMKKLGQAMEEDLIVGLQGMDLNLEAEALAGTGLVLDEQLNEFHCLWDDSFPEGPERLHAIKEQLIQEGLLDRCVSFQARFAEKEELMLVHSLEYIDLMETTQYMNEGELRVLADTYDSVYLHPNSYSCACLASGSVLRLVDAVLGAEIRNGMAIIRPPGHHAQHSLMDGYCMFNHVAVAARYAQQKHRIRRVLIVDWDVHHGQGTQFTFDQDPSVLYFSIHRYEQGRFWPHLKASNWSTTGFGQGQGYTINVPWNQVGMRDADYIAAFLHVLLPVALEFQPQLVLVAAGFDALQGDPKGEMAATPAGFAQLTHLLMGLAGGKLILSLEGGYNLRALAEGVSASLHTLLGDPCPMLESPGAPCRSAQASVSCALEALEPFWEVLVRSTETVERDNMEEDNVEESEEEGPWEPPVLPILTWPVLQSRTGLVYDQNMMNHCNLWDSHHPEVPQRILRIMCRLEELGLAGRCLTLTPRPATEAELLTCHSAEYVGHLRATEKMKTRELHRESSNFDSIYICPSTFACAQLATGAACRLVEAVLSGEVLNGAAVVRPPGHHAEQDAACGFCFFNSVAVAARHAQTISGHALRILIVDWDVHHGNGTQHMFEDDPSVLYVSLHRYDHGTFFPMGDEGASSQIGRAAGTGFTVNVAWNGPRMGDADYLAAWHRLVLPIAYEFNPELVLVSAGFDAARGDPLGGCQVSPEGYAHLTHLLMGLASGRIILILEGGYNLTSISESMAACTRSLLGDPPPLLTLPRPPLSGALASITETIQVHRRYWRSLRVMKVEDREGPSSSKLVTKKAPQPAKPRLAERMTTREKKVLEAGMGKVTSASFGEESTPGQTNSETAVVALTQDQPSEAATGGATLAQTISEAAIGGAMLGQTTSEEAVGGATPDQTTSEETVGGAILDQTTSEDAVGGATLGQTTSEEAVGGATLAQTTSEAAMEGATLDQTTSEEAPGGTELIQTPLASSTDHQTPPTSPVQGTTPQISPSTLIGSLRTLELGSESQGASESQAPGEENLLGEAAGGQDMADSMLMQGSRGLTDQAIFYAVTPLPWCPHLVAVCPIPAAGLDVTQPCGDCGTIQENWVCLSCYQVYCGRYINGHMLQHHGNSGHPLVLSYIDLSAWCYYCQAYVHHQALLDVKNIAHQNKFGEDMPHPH

SH-SY5Y cells [3] = experiment: Neurite outgrowth assay, SH-SY5Y; type: cell-based; settings: Homo sapiens
SH-SY5Y cells [4] = experiment: Neurite synaptic uptake activity (FM1-43), SH-SY5Y; type: cell-based; settings: Homo sapiens, NGF positive control taken as 100%, read-out: uptake of dye FM1-43 EC50
Procedure: (§1) Neurite Synaptic Uptake Activity Analysis.
(§2) The effects of compounds on the neuronal synapse uptake of fluorescent indicator FM1-43 were assayed. The uptake of the dye indicated the synaptic function of the neurites. PC 12 and SH-SY5Y cells were used. Cells in experimental groups were treated with a test compound and FM1-43; Cells in positive control were treated with NGF and FM1-43; Cells in negative control were treated with a vehicle and FM1-43. The fluorescence in the positive control were taken as 100%.

PC 12 cells [5] = experiment: Neurite synaptic uptake activity (FM1-43), PC 12; type: cell-based; settings: Rattus norvegicus, NGF positive control taken as 100%, read-out: uptake of dye FM1-43 EC50
Procedure: as §1, §2

[6] = target: human histone deacetylases (HDAC) 1 (Homo sapiens, UniProt Q13547); experiment: HDAC enzymatic assay, HDAC1; type: biochemical; settings: read-out: IC50 HDAC1 (grading)
PC 12 cells [7] = experiment: Neurite outgrowth assay, PC 12; type: cell-based; settings: Rattus norvegicus
[8] = MTT or SRB assay for cytotoxicity, A549; type: cell-based; settings: human, A549 cells, read-out: cytotoxicity IC50 (grading) A549
Procedure: (§3) MTT or SRB Assays for Cytotoxicities of HDAC Inhibitors.
(§4) These compounds were assayed for cytotoxicities to the following cells: A549 cells (adenocarcinomic human alveolar basal epithelial cells), HCT-116 cells (human colon carcinoma cells). PANC-1 cells (human pancreatic carcinoma, epithelial-like cell line) and HepG2 cells (human liver hepatocellular carcinoma cell line), neuronal cells PC12 (rat pheochromocytoma cell line) and SH-SY5Y (human neuroblastoma cell line). MTT (3-[4,5-dimethylthiazol-2-yl]2,5-diphenyl-tetrazolium bromide) reduction was collaborated by using trypan blue exclusion assay.

[9] = MTT or SRB assay for cytotoxicity, HepG2; type: cell-based; settings: human, HepG2 cells, read-out: cytotoxicity IC50 (grading) HepG2
Procedure: as §3, §4

[10] = MTT or SRB assay for cytotoxicity, HCT116; type: cell-based; settings: human, HCT-116 cells, read-out: cytotoxicity IC50 (grading) HCT116
Procedure: as §3, §4

[11] = MTT or SRB assay for cytotoxicity, PANC1; type: cell-based; settings: human, PANC-1 cells, read-out: cytotoxicity IC50 (grading) PANC1
Procedure: as §3, §4

[12] = HDAC8, read-out: IC50 HDAC8 (grading)
[13] = HDAC6, read-out: IC50 HDAC6 (grading)

Chain of human histone deacetylases (HDAC) 1 (Q13547 whole entry): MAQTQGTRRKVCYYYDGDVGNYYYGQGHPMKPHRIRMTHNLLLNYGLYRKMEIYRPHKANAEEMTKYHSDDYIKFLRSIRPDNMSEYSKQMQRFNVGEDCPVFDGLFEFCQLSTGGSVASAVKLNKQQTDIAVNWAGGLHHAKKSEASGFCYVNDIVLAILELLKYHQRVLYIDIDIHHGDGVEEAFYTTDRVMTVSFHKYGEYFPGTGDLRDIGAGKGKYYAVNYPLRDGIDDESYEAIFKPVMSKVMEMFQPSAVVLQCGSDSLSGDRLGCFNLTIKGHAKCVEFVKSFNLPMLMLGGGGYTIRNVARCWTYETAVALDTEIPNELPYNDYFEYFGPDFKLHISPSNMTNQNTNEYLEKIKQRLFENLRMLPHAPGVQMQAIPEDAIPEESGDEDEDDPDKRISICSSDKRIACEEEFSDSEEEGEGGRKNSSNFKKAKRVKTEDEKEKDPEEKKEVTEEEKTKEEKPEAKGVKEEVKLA

| Compound | EC50 (SH-SY5Y cells [3]) [µM] | EC50 (SH-SY5Y cells [4]) [µM] | IC50 [1, 12] [µM] | IC50 [2, 13] [µM] | selective inhibitions on HDAC6 [2] | EC50 (PC 12 cells [5]) [µM] | IC50 [6] [µM] | melting point | IC50 [1] [µM] | IC50 [2] [µM] | EC50 (PC 12 cells [7]) [µM] | IC50 [8] [µM] | IC50 [9] [µM] | IC50 [10] [µM] | IC50 [11] [µM] |
| --- | --- | --- | --- | --- | --- | --- | --- | --- | --- | --- | --- | --- | --- | --- | --- |
| Cc1nc2cc(/C=C/C(=O)NO)ccc2c(=O)n1-c1ccccc1 [Compound 1c, (2E)-3-(3,4-dihydro-2-methyl-4-oxo-3-phenylquinazolin-7-yl)-N-hydroxyacrylamide] |  |  |  |  |  |  |  |  | 1 to 10 | < 0.1 |  |  |  |  |  |
| CCc1nc2cc(/C=C/C(=O)NO)ccc2c(=O)n1CCCc1ccccc1 [Compound 1j, (2E)-3-(2-ethyl-3,4-dihydro-4-oxo-3-(3-phenylpropyl)quinazolin-7-yl)-N-hydroxyacrylamide] | 9.97 ± 1.17 | 9.97 ± 1.17 | 1 to 10 | < 0.1 | selective inhibitions on HDAC6 | 6.95 ± 0.82 | 1 to 10 | 189 to 191 °C |  |  | 6.95 ± 0.82 |  |  |  |  |
| O=C(/C=C/c1ccc2c(=O)n(CCc3ccccc3)c(C3CC3)nc2c1)NO [Compound 1k, (2E)-3-(2-cyclopropyl-3,4-dihydro-4-oxo-3-phenethylquinazolin-7-yl)-N-hydroxyacrylamide] | > 30 | > 30 |  | < 0.1 |  | 0.76 ± 0.69 | 0.1 to 1 | 204 to 206 °C (dec.) |  |  | 0.76 ± 0.69 |  |  |  |  |
| CC(C)c1nc2cc(/C=C/C(=O)NO)ccc2c(=O)n1CCc1ccccc1 [Compound 1l, (2E)-3-(3,4-dihydro-2-isopropyl-4-oxo-3-phenethylquinazolin-7-yl)-N-hydroxyacrylamide] | 6.74 ± 0.78 | 6.74 ± 0.78 |  | < 0.1 |  | 5.28 ± 0.51 | 0.1 to 1 | 173 to 174 °C (dec.) |  |  | 5.28 ± 0.51 |  |  |  |  |
| CCc1nc2cc(/C=C/C(=O)NO)ccc2c(=O)n1CCc1ccc(OC)cc1 [Compound 1m] | 20.6 ± 2.51 | 20.6 ± 2.51 | 0.1 to 1 | < 0.1 |  | 20.6 ± 3.12 | 1 to 10 | 215 to 217 °C |  |  | 20.6 ± 3.12 | 1 to 10 | 1 to 10 | 1 to 10 | 1 to 10 |
| CCc1nc2cc(/C=C/C(=O)NO)ccc2c(=O)n1CCc1ccc(F)cc1 [Compound 1n, (2E)-3-(3-(4-fluorophenethyl)-2-ethyl-3,4-dihydro-4-oxoquinazolin-7-yl)-N-hydroxyacrylamide] | 22.2 ± 2.01 | 22.2 ± 2.01 | 0.1 to 1 | < 0.1 |  | 13.9 ± 0.94 | 1 to 10 | 195 to 197 °C (dec.) |  |  | 13.9 ± 0.94 | 1 to 10 | 1 to 10 | 1 to 10 | 1 to 10 |
| CCc1nc2cc(/C=C/C(=O)NO)c(F)cc2c(=O)n1CCc1ccccc1 [Compound 2a, (2E)-3-(2-ethyl-6-fluoro-3,4-dihydro-4-oxo-3-phenethylquinazolin-7-yl)-N-hydroxyacrylamide] |  |  | 1 to 10 | < 0.1 | selective inhibitions on HDAC6 | 1.66 ± 0.76 | 1 to 10 |  |  |  |  | 1 to 10 | 1 to 10 | 1 to 10 | 1 to 10 |
| CCc1nc2c(Cc3ccc(C(=O)NO)cc3)cccc2c(=O)n1CCc1ccccc1 [Compound 4c, 4-((2-ethyl-3,4-dihydro-4-oxo-3-phenethylquinazolin-8-yl)methyl)-N-hydroxybenzamide] |  |  |  |  |  | 5.34 ± 0.85 |  |  | 0.1 to 1 | 0.1 to 1 |  | ≥ 10 | 1 to 10 | ≥ 10 | ≥ 10 |

Now from value to molecule, other results behind:

| EC50 (SH-SY5Y cells [3]) [µM] | EC50 (SH-SY5Y cells [4]) [µM] | IC50 [1, 12] [µM] | IC50 [2, 13] [µM] | selective inhibitions on HDAC6 [2] | EC50 (PC 12 cells [5]) [µM] | IC50 [6] [µM] | melting point | Compound | IC50 [1] [µM] | IC50 [2] [µM] | EC50 (PC 12 cells [7]) [µM] | IC50 [8] [µM] | IC50 [9] [µM] | IC50 [10] [µM] | IC50 [11] [µM] |
| --- | --- | --- | --- | --- | --- | --- | --- | --- | --- | --- | --- | --- | --- | --- | --- |
|  |  | 0.1 to 1 | < 0.1 | selective inhibitions on HDAC6 | 0.78 ± 0.49 | 1 to 10 | 183 to 185 °C (dec.) | CCc1nc2cc(F)c(/C=C/C(=O)NO)cc2c(=O)n1CCc1ccccc1 [Compound 3a, (2E)-3-(2-ethyl-7-fluoro-3,4-dihydro-4-oxo-3-phenethylquinazolin-6-yl)-N-hydroxyacrylamide] |  |  |  | 1 to 10 | ≥ 10 | ≥ 10 | ≥ 10 |
| 7.63 ± 0.74 | 7.63 ± 0.74 | 1 to 10 | 0.1 to 1 |  | 10.7 ± 1.26 | > 10 |  | CCc1nc2cc(Cl)c(/C=C/C(=O)NO)cc2c(=O)n1CCc1ccccc1 [Compound 3b, (2E)-3-(7-chloro-2-ethyl-3,4-dihydro-4-oxo-3-phenethylquinazolin-6-yl)-N-hydroxyacrylamide] |  |  | 10.7 ± 1.26 | 1 to 10 | ≥ 10 | ≥ 10 | 0.1 to 1 |
| 4.06 ± 0.58 | 4.06 ± 0.58 | < 0.1 | < 0.1 | selective inhibitions on HDAC6 | 2.89 ± 0.45 | 1 to 10 |  | CCc1nc2ccc(Cc3ccc(C(=O)NO)cc3)cc2c(=O)n1CCc1ccccc1 [Compound 4a, 4-((2-ethyl-3,4-dihydro-4-oxo-3-phenethylquinazolin-6-yl)methyl)-N-hydroxybenzamide] |  |  | 2.89 ± 0.45 |  |  |  |  |
|  |  |  | < 0.1 | selective inhibitions on HDAC6 |  |  | 181 to 183 °C (dec.) | CCc1nc2cc(Cc3ccc(C(=O)NO)cc3)ccc2c(=O)n1CCc1ccccc1 [Compound 4b, 4-((2-ethyl-3,4-dihydro-4-oxo-3-phenethylquinazolin-7-yl)methyl)-N-hydroxybenzamide] |  |  |  | 1 to 10 | 0.1 to 1 | 1 to 10 | 1 to 10 |
|  |  |  |  |  |  |  | 202 to 204 °C (dec.) | CCc1nc2c(-c3ccc(C(=O)NO)cc3)cccc2c(=O)n1CCc1ccccc1 [Compound 5a, 4-(2-ethyl-3,4-dihydro-4-oxo-3-phenethylquinazolin-8-yl)-N-hydroxybenzamide] |  |  |  | ≥ 10 | ≥ 10 | ≥ 10 | 1 to 10 |
